# Key:
# H460 = assay: Cellular H460 viability assay (CellTiter-Glo, 72 hours); format: cell-based; settings: Homo sapiens, NCI-H460
# How it was run: (§1)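 Luminescent ATP read-out (CellTiter-Glo) after 72 h compound exposure at 37 °C/5% CO2; duplicate wells; vehicle control DMSO <0.1% final; seeding density set per cell line.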
# CDK5/p25 = target: T1, CDK5/p25 (Homo sapiens, UniProt Q00535); assay: Enzymatic assay for CDK5 (FRET based LANCE Ultra kinase assay); format: biochemical; settings: read-out: CDK5 enzymatic activity (IC50 range)
# T1 construct: purchased Invitrogen PR8543B
# T1 sequence (Q00535 whole entry): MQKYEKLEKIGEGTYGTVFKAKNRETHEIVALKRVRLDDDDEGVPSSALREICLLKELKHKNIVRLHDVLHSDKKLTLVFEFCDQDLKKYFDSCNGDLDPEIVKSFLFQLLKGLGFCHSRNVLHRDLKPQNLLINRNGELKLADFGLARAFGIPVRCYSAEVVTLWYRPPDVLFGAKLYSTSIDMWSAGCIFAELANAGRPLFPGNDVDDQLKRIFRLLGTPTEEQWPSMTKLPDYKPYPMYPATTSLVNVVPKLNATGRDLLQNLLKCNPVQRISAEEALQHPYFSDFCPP
# T1 sequence (Q15078 99-307 partner limits assumed): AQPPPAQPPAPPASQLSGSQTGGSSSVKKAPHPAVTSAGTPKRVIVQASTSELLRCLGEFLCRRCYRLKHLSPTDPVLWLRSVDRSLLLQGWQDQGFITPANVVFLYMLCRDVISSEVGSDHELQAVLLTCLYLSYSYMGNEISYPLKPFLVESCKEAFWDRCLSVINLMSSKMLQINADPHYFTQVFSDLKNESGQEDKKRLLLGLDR
# How it was run: (§2)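 TR-FRET (LANCE Ultra) kinase assay at ATP Km, ULight-MBP peptide substrate (68 nM), 8-dose 4-fold compound series in DMSO. Enzymes: […]; 60 min at 23° C., stopped with EDTA plus Eu-anti-phospho-MBP antibody, read 665/615 nm after 60 min.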
# CDK7/Cyclin H/MNAT1 = target: T2, CDK7/Cyclin H/MNAT1 (Homo sapiens, UniProt P50613); assay: Enzymatic assay for CDK7 (FRET based LANCE Ultra kinase assay); format: biochemical
# T2 construct: purchased Invitrogen PR6749B
# T2 sequence (P50613 whole entry): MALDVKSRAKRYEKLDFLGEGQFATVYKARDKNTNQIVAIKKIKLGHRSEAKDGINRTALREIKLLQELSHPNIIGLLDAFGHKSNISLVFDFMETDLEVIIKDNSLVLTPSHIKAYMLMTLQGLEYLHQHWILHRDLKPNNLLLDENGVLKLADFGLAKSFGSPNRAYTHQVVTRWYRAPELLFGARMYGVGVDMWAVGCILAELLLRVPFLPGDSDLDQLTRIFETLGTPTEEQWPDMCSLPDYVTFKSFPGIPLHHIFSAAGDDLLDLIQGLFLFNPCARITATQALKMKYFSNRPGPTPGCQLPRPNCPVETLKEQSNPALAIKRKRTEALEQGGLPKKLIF
# T2 sequence (P51946 whole entry partner): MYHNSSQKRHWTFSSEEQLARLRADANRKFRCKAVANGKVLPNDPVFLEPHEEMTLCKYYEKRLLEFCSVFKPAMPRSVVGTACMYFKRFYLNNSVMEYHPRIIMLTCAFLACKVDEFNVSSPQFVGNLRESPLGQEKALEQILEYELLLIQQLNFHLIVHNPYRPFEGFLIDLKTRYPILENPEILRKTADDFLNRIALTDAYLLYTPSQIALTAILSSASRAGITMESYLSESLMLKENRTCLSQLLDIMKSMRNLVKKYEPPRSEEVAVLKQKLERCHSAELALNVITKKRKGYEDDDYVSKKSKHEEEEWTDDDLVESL
# T2 sequence (P51948 whole entry partner): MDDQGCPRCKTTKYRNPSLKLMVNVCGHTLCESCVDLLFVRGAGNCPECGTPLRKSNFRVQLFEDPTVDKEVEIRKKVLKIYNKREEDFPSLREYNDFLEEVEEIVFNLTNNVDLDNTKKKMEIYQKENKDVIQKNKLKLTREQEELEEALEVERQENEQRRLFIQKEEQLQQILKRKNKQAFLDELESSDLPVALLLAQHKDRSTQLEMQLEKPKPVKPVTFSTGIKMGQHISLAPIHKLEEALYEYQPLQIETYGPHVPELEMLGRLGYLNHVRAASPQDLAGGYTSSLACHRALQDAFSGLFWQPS
# How it was run: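 Inhibition was measured at Km ATP by time-resolved FRET between a Eu anti-phospho antibody and a phosphorylated ULight peptide. The enzyme was the purified CDK7/cyclin complex, and data were curve-fitted.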
# HCT116 = assay: Cellular HCT116 viability assay (CellTiter-Glo, 72 hours); format: cell-based; settings: Homo sapiens, HCT-116
# How it was run: as §1
# MV4-11 = assay: Cellular MV4-11 viability assay (CellTiter-Glo, 72 hours); format: cell-based; settings: Homo sapiens
# How it was run: as §1
# CDK1/Cyclin B = target: T3, CDK1/Cyclin B (Homo sapiens, UniProt P06493); assay: Enzymatic assay for CDK1 (FRET based LANCE Ultra kinase assay); format: biochemical; settings: read-out: CDK1 enzymatic activity (IC50 range)
# T3 construct: purchased Invitrogen PR4768C
# T3 sequence (P06493 whole entry): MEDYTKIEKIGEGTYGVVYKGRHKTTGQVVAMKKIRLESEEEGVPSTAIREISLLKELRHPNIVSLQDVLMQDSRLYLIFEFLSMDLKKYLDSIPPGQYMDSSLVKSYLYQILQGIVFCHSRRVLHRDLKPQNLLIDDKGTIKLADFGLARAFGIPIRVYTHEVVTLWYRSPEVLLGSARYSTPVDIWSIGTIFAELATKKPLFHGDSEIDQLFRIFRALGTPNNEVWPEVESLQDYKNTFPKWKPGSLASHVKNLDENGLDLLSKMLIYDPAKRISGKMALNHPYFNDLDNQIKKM
# T3 sequence (P14635 whole entry partner): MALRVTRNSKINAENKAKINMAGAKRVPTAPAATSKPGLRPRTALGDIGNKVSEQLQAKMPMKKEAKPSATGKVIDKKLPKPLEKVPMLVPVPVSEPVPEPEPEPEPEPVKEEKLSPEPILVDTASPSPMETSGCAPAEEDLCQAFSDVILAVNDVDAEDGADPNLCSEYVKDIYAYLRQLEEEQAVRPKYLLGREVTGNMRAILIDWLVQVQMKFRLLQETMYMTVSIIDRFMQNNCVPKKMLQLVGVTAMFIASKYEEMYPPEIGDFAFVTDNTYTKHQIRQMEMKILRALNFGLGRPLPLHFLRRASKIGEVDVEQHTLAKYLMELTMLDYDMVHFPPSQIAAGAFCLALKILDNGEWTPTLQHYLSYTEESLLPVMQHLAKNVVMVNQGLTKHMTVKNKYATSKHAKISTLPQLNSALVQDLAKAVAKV
# How it was run: as §2
structure (smiles),measurement,setting,value
CC(C)c1cnn2c(NCc3c(Cl)cccc3-n3ccc(C(C)(C)O)n3)nc(N3CCC(N)CC3)nc12 [Compound 210],IC50,H460,< 1000 nM
same,IC50,CDK5/p25,100 to 1000 nM
same,CDK1/CDK7: Selectivity of CDK7 inhibition over CDK1 inhibition,CDK7/Cyclin H/MNAT1; CDK7 over CDK1,A (A=greater than 200 fold)
same,CDK2/CDK7: Selectivity of CDK7 inhibition over CDK2 inhibition,CDK7/Cyclin H/MNAT1; CDK7 over CDK2,A (A=greater than 200 fold)
same,CDK5/CDK7: Selectivity of CDK7 inhibition over CDK5 inhibition,CDK7/Cyclin H/MNAT1; CDK7 over CDK5,A (A=greater than 200 fold)
same,IC50,CDK7/Cyclin H/MNAT1; read-out: CDK7 enzymatic activity (IC50 range),< 100 nM
same,IC50,HCT116,< 1000 nM
same,IC50,MV4-11,< 1000 nM
same,IC50,CDK1/Cyclin B,> 1000 nM
